Data on four molecules can be found in patent US7425577B2, “Lipase-colipase inhibitor” (Forskarpatent 1 SYD AB, priority 2003, dated 2008).

SMILES strings stand for the structures.

For this test, the target named is T1, Lipase and colipase, purified from human pancreatic gland (Homo sapiens, UniProt P04118+P16233).
T1 construct: Lipase, Purified from Human Pancreatic Gland; Colipase, Purified from Human Pancreatic Gland; from tissue; host or cells: human pancreatic gland
T1 sequence (P16233 17-465): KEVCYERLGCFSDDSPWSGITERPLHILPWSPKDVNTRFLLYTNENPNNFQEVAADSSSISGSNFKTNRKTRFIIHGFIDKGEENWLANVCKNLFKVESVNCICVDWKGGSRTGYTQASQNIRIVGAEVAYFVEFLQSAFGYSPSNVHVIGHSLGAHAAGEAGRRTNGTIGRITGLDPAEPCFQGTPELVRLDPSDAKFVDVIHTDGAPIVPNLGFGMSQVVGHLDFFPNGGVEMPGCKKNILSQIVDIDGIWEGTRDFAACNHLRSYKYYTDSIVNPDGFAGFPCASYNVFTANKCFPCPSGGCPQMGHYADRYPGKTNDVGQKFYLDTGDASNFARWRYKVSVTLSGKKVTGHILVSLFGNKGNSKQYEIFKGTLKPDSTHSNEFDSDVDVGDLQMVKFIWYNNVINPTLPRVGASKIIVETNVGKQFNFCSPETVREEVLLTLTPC
T1 sequence (P04118 23-112): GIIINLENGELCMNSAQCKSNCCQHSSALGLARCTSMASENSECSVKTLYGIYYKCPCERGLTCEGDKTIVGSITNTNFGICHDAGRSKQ
The test is described as follows: Determination of lipolysis by colipase/lipase (pH-stat, tributyrine emulsion with NaTDC). The test is classed as biochemical. The source says:
Determination of Lipolysis by Colipase/Lipase
The most important enzyme in the gastro-intestinal tract being responsible for the hydrolysis of lipids/fats in the gastro-intestinal tract is lipase, pancreatic lipase, together with its protein cofactor colipase. These are two proteins, which are secreted from the pancreatic gland. […] The colipase binds to lipase in a molar 1:1 complex and then moves the complex to the triglyceride surface. In the binding between lipase and colipase hydrogen bonds are present, between arg38 of the colipase and ser343 of the lipase and from glu15 of the colipase and the asn241 of the lipase molecules. In the binding of colipase to the substrate (the lipids/fat) there are both hydrophobic bonds as well as ion-ion bonds present. By an isolated lack of colipase it has been shown that colipase has a decisive role for the lipolysis in the gastro-intestinal tract of humans. Pure lipase and colipase have been produced in accordance with the following.
Lipase, Purified from Human Pancreatic Gland
Colipase, Purified from Human Pancreatic Gland
0.5 ml of tributyrine is mixed with 15 ml of a buffer containing 1 mM CaCl2, 150 mM NaCl, 2 mM tris-maleate, pH 7.0 and 4 mM NaTDC (sodium taurodeoxycholate). An emulsion is obtained by continuous stirring. pH is titrated by means of a pH-state, where 0.1 N NaOH is added automatically to keep an constant pH. 10 μl of lipase is added from a stock solution containing 70 units of lipase/ml, followed by 10 μl of colipase from a stock solution containing 1 mg colipase/ml. An activity is registered which is determined to be 100%. An addition of an inhibitor is then made. A new assay is used for every concentration, prepared in the same way. The inhibition is registered as percentage of control. A dose-response plot is obtained for the compounds having an inhibiting ability.

Turning to `CCCCCCCCCCCCOCCOCCOCCOCCOCCOCCN(C)C` [dimethylaminoethyl pentaethyleneglycol dodecyl ether], the “Activity Inhibitor” value is, setting by setting: (amount of inhibitor 0.26 μmol, control activity 0.307) 0.273 µmol/min; (amount of inhibitor 0.52 μmol, control activity 0.29) 0.236 µmol/min; (amount of inhibitor 1.05 μmol, control activity 0.302) 0.222 µmol/min; (amount of inhibitor 2.62 μmol, control activity 0.299) 0.13 µmol/min; (amount of inhibitor 5.23 μmol, control activity 0.314) 0.083 µmol/min; (amount of inhibitor 7.85 μmol, control activity 0.312) 0.04 µmol/min. Further, the “Activity Inhibitor” value by setting is: (amount of inhibitor 10.46 μmol, control activity 0.3) 0.015 µmol/min; (amount of inhibitor 15.69 μmol, control activity 0.319) 0.009 µmol/min; (amount of inhibitor 20.92 μmol, control activity 0.282) 0 µmol/min.
As for `CCCCCCCCCCCCOCCOCCOCCOCCOCCOCCOCCOCCOCCN(CCC)CCC` [dipropylaminoethyl octaethyleneglycol dodecyl ether], the “Activity Inhibitor” value (amount of inhibitor 0.2 μmol, control activity 0.256) came out at 0.256 µmol/min; the “Activity Inhibitor” value (amount of inhibitor 0.4 μmol, control activity 0.28) was found to be 0.256 µmol/min; the “Activity Inhibitor” value (amount of inhibitor 0.8 μmol, control activity 0.259) came to 0.209 µmol/min; the “Activity Inhibitor” value (amount of inhibitor 2.01 μmol, control activity 0.25) amounted to 0.136 µmol/min; the “Activity Inhibitor” value (amount of inhibitor 4.02 μmol, control activity 0.246) is 0.096 µmol/min; the “Activity Inhibitor” value (amount of inhibitor 8.04 μmol, control activity 0.244) is 0.033 µmol/min. Moreover, the “Activity Inhibitor” value reads like this: (amount of inhibitor 12.06 μmol, control activity 0.252) 0.011 µmol/min; (amount of inhibitor 16.08 μmol, control activity 0.247) 0 µmol/min.
Turning to `CCCCCCCCCCCCCCN(C)C` [N,N-dimethyl tetradecyl amine], the “Activity Inhibitor” value amounted to 0.179 µmol/min (amount of inhibitor 1.04 μmol, control activity 0.226); 0.121 µmol/min (amount of inhibitor 2.07 μmol, control activity 0.243); 0.056 µmol/min (amount of inhibitor 4.14 μmol, control activity 0.223); 0.045 µmol/min (amount of inhibitor 7.25 μmol, control activity 0.257); 0.033 µmol/min (amount of inhibitor 10.35 μmol, control activity 0.282); 0 µmol/min (amount of inhibitor 15.53 μmol, control activity 0.256).
With `CCCCCCCCOCCN(C)C` [dimethylaminoethyl octyl ether], the “Activity Inhibitor” value came out at 0.249 µmol/min (amount of inhibitor 2.49 μmol, control activity 0.304); 0.215 µmol/min (amount of inhibitor 4.98 μmol, control activity 0.319); 0.136 µmol/min (amount of inhibitor 8.71 μmol, control activity 0.314); 0.069 µmol/min (amount of inhibitor 12.44 μmol, control activity 0.356); 0.053 µmol/min (amount of inhibitor 18.66 μmol, control activity 0.32); 0.035 µmol/min (amount of inhibitor 21.89 μmol, control activity 0.293). For the setting “amount of inhibitor 24.88 μmol, control activity 0.278”, the “Activity Inhibitor” value was determined as 0 µmol/min.
